15 molecules from ChEMBL document CHEMBL1201862, “PubChem BioAssay data set” (2004) can be followed below.

Some test systems named below: NCI-H460; UACC-257; MDA-MB-231; EKVX; ACHN; 786-0; OVCAR-5; SNB-75; DU-145; IGROV-1; HCT-116; PC-3; NCI-H522; M14; MDA-N; KM-20L2; DMS-273; M19-MEL; OVCAR-4; XF498.
What all share (test): growth of human tumour cells (NCI), 48 h

Molecules are shown by their SMILES.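 Interpolation was linear, between the two tested concentrations surrounding the appropriate level; five concentrations were tested over 48 hours in 96-well plates. GI50 is the concentration that inhibits growth by half.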 Active and inactive are the calls of the source. Cut-off read from the data, not from the text of the source: active = GI50 up to about 1.1 µM and inactive = higher.

With `Cc1ccc(C=C(C(=O)O)C(=O)O)o1`, the GI50 in the assay on NCI-H460, in the assay with UACC-257, with MDA-MB-231, with EKVX, in the assay on ACHN and with 786-0 was > 100 µM (inactive) each time. Moreover, the GI50 with OVCAR-5, in the assay on SNB-75, in the assay with DU-145, in the assay on IGROV-1, in the assay with HCT-116 and with PC-3 was > 100 µM (inactive) each time. For the same molecule, the GI50 in the assay on NCI-H522, in the assay with M14 and in the assay on MDA-N was > 100 µM (inactive) in each case.
For the molecule `COc1ccc(C[C@H](N)C(=O)N2C[C@@H](CO)C[C@@H](n3cnc4c(N(C)C)ncnc43)C2)cc1`, the GI50 in the assay on NCI-H460, in the assay on KM-20L2, in the assay with UACC-257, in the assay with DMS-273, in the assay with EKVX and in the assay with 786-0 was > 100 µM (inactive) each time. Besides, the GI50 in the assay on OVCAR-5, in the assay on IGROV-1, in the assay with HCT-116, with NCI-H522, in the assay with M14 and in the assay on M19-MEL was > 100 µM (inactive) throughout.
As for `COc1ccc2c(c1)c1c(n2CCN2CCCCC2)-c2cccc(OC)c2CC1`, the GI50 in the assay with NCI-H460 was 19.9 µM (inactive); in the assay with UACC-257 it was 18.2 µM (inactive); with MDA-MB-231, 15.6 µM (inactive); with EKVX, 19.6 µM (inactive); in the assay with ACHN it was 17.5 µM (inactive); in the assay with 786-0, 20.2 µM (inactive). Moreover, the GI50 was 16.1 µM (inactive) in the assay with OVCAR-5; 29.2 µM (inactive) in the assay on OVCAR-4; 18.5 µM (inactive) in the assay with SNB-75; 32 µM (inactive) in the assay on DU-145; 13.4 µM (inactive) with IGROV-1; 24.7 µM (inactive) in the assay with HCT-116. Also, the GI50 in the assay on PC-3 is 12.7 µM (inactive); in the assay with NCI-H522 it was 3.82 µM (inactive); in the assay on M14 it was 12 µM (inactive); in the assay on MDA-N it was 16.2 µM (inactive).
Take `Oc1nc2c(c(-c3ccccc3Cl)n1)COC/C2=C\c1ccccc1Cl`: the GI50 in the assay with NCI-H460 was > 100 µM (inactive); in the assay on UACC-257, > 100 µM (inactive); in the assay on MDA-MB-231, > 100 µM (inactive); with EKVX, 25.6 µM (inactive); in the assay with ACHN it was > 100 µM (inactive); in the assay on 786-0, > 100 µM (inactive). For the same molecule, the GI50 in the assay with OVCAR-5 is > 100 µM (inactive); in the assay on OVCAR-4, > 100 µM (inactive); with SNB-75, 38.9 µM (inactive); in the assay with DU-145, > 100 µM (inactive); in the assay with IGROV-1, 43.9 µM (inactive); in the assay with HCT-116, > 100 µM (inactive). The GI50 with PC-3, with M14 and in the assay on MDA-N was > 100 µM (inactive) each time.
Take `C[N+](C)(CCO)CCN1c2ccccc2Sc2ccccc21`: the GI50 in the assay on NCI-H460, in the assay with MDA-MB-231, in the assay on EKVX, with ACHN, in the assay with OVCAR-5 and in the assay on OVCAR-4 was > 10 µM (inactive) each time. Also, the GI50 with SNB-75, in the assay with DU-145, with IGROV-1, in the assay on HCT-116, in the assay on PC-3 and in the assay on NCI-H522 was > 10 µM (inactive) in each case. The GI50 in the assay with M14 and in the assay with MDA-N was > 10 µM (inactive) throughout.
`O=C1OC2CC=CC1C2` (stereo not drawn): the GI50 with NCI-H460, in the assay with KM-20L2, in the assay on UACC-257, in the assay on DMS-273, in the assay on EKVX and in the assay with OVCAR-5 was > 100 µM (inactive) throughout. Besides, the GI50 with OVCAR-4, in the assay on SNB-75, with IGROV-1, with HCT-116, with NCI-H522 and in the assay on XF498 was > 100 µM (inactive) each time. In addition, in the assay with M19-MEL, the GI50 is > 100 µM (inactive).
For `CN(C)C(=O)/N=C1\SC(=N\c2ccccc2)/C(=N/c2ccccc2)N1c1ccc([N+](=O)[O-])cc1`, the GI50 in the assay on NCI-H460 is > 100 µM (inactive); with MDA-MB-231, > 100 µM (inactive); in the assay with OVCAR-5, > 100 µM (inactive); with SNB-75, 41.6 µM (inactive); with DU-145, > 100 µM (inactive); in the assay with IGROV-1, > 100 µM (inactive). Further, the GI50 in the assay on HCT-116, in the assay with PC-3, in the assay with NCI-H522, in the assay on M14 and with MDA-N was > 100 µM (inactive) each time.
In the case of `Nc1ncnc2c1nnn2C1OC(CO)C(O)C1O` (stereo not drawn), the GI50 is 2.13 µM (inactive) with NCI-H460; 4.2 µM (inactive) in the assay on KM-20L2; 8.93 µM (inactive) in the assay with UACC-257; 2.62 µM (inactive) with DMS-273; 7.66 µM (inactive) in the assay on EKVX; 4.37 µM (inactive) in the assay on OVCAR-5. For the same molecule, the GI50 in the assay on OVCAR-4 is 8.85 µM (inactive); in the assay on SNB-75 it was 9.02 µM (inactive); in the assay on IGROV-1 it was 1.19 µM (inactive); with HCT-116, 1.9 µM (inactive); in the assay with NCI-H522, 1.87 µM (inactive); in the assay with XF498, 6.98 µM (inactive). Moreover, the GI50 with M19-MEL was 8.57 µM (inactive).
`CCNC(=O)C(C)C1CCC2(C)C=CC(=O)C(C)=C2C1O` (stereo not drawn): the GI50 in the assay on NCI-H460 was > 100 µM (inactive); in the assay with KM-20L2, > 100 µM (inactive); in the assay on UACC-257, > 100 µM (inactive); in the assay on DMS-273, > 77.4 µM (inactive); in the assay on EKVX, > 100 µM (inactive); in the assay on OVCAR-5 it was > 100 µM (inactive). Moreover, the GI50 in the assay on OVCAR-4 is > 100 µM (inactive); with SNB-75, > 100 µM (inactive); with IGROV-1, 98.4 µM (inactive); with HCT-116, > 100 µM (inactive); in the assay on NCI-H522, > 100 µM (inactive); in the assay with XF498, > 100 µM (inactive). Further, in the assay with M19-MEL, the GI50 is > 100 µM (inactive).
`CSC1=C(SC)C(=O)c2cn(C)c(=O)cc2C1=O`: the GI50 with NCI-H460 was 9.38 µM (inactive); in the assay with UACC-257, 2.34 µM (inactive); with MDA-MB-231 it was 1.87 µM (inactive); with EKVX, 18.3 µM (inactive); with ACHN, 1.81 µM (inactive); in the assay on OVCAR-5 it was 20.2 µM (inactive). Further, the GI50 in the assay with OVCAR-4 was 1.97 µM (inactive); in the assay with SNB-75, 8.67 µM (inactive); in the assay on DU-145 it was 8.47 µM (inactive); in the assay with IGROV-1, 11.1 µM (inactive); in the assay on HCT-116, 1.81 µM (inactive); in the assay on PC-3, 9.55 µM (inactive). For the same molecule, the values for the GI50 in the assay on NCI-H522, in the assay on M14 and in the assay with MDA-N were 0.853 µM (active), 1.73 µM (inactive) and 1.64 µM (inactive), respectively.
Take `CC(C)(C)[Si](C)(C)OCCCC#CCO`: the GI50 with NCI-H460, with KM-20L2, in the assay on UACC-257, with DMS-273, with EKVX and with ACHN was > 100 µM (inactive) each time. The GI50 in the assay with OVCAR-5, with OVCAR-4, with SNB-75, in the assay on IGROV-1, with NCI-H522 and in the assay on M14 was > 100 µM (inactive) in each case. Besides, in the assay with XF498, the GI50 is > 100 µM (inactive).
Take `CSCCC(NOC(=O)Cc1ccccc1)P(=O)(O)c1ccccc1` (stereo not drawn): the GI50 with NCI-H460, in the assay with UACC-257, with MDA-MB-231, in the assay with ACHN, in the assay on OVCAR-5 and in the assay with OVCAR-4 was > 100 µM (inactive) in each case. Besides, the GI50 in the assay on SNB-75, in the assay with DU-145, with IGROV-1, in the assay on HCT-116, in the assay with PC-3 and in the assay on NCI-H522 was > 100 µM (inactive) in each case. Besides, the GI50 in the assay with M14 and in the assay with MDA-N was > 100 µM (inactive) each time.
For the molecule `Clc1ccc(C2SCc3nc4ccccc4n32)cc1` (stereo not drawn), the GI50 in the assay on NCI-H460 was 28.9 µM (inactive); in the assay with KM-20L2 it was 28.2 µM (inactive); in the assay with DMS-273, 15.4 µM (inactive); in the assay with EKVX, 34.5 µM (inactive); with ACHN, 30.1 µM (inactive); in the assay with SNB-75 it was 4.88 µM (inactive). Moreover, the GI50 with IGROV-1 was 14.5 µM (inactive); in the assay with NCI-H522, 14.4 µM (inactive); in the assay on M14, 18.5 µM (inactive); in the assay with XF498, 8.2 µM (inactive); with M19-MEL, 19.9 µM (inactive).
Turning to `COc1ccc(NC(=S)NNC(=O)c2nsc3ccccc23)cc1`, the GI50 is 33.5 µM (inactive) with NCI-H460; 39.1 µM (inactive) in the assay on KM-20L2; 36 µM (inactive) in the assay on UACC-257; 26.1 µM (inactive) with DMS-273; 28.3 µM (inactive) with EKVX; 43.9 µM (inactive) in the assay on ACHN. Besides, the GI50 is > 100 µM (inactive) with OVCAR-5; 62.2 µM (inactive) in the assay on OVCAR-4; 24.9 µM (inactive) in the assay with SNB-75; 35.1 µM (inactive) with IGROV-1; 28.4 µM (inactive) with HCT-116; 17.8 µM (inactive) with M14. The GI50 with M19-MEL was 33 µM (inactive).
As to `C1CNCCNCCNCCN1`, the GI50 in the assay with NCI-H460 was 35.8 µM (inactive); with KM-20L2, 82.6 µM (inactive); in the assay on UACC-257, > 100 µM (inactive); in the assay with DMS-273 it was 53.8 µM (inactive); in the assay on EKVX, > 100 µM (inactive); in the assay on ACHN, > 100 µM (inactive). In addition, the GI50 in the assay with 786-0 was > 100 µM (inactive); in the assay with OVCAR-5, > 100 µM (inactive); in the assay on SNB-75, > 100 µM (inactive); with IGROV-1 it was > 100 µM (inactive); in the assay with HCT-116, 50.1 µM (inactive); in the assay on NCI-H522 it was > 100 µM (inactive). Also, the GI50 with M14 is > 100 µM (inactive); with XF498, 0.14 µM (active); with M19-MEL it was > 100 µM (inactive).
